In patent US20080171773A1, “FACTOR Xa INHIBITOR” (Pfizer Inc, priority 2006, published 2008):

Biological target: T1, human factor Xa (Homo sapiens, UniProt P00742)
T1 construct: factor Xa, a serine protease that occupies a pivotal position in the coagulation cascade
Test: Factor Xa inhibitory activity: inhibition of human factor Xa cleavage of substrate S-2765
Assay type: biochemical
Conditions: 30 pM human factor Xa, substrate S-2765 at its Km, pH 7.4, 37° C.; mean of replicates (SD, SEM and n in separate columns)
Description: The ability of compounds to act as inhibitors of human factor Xa catalytic activity can be assessed by determination of the concentration of test substance that inhibits by 50% (IC50) the ability of human factor Xa to cleave the chromogenic substrate S2765 (N-CBz-D-Arg-L-Gly-L-Arg-p-nitroanilide. 2HCl).
The assay was performed in triplicate using a final concentration of 30 pM of human factor Xa (diluted in buffer containing 10 mM HEPES, 150 mM NaCl, 0.1% bovine serum albumin (BSA), pH 7.4). The substrate, S-2765 (N-CBz-D-Arg-L-Gly-L-Arg-p-nitroanilide, 2HCl), was run at a final concentration equal to its Km value. The (R) enantiomer was serially diluted in 100% DMSO (final assay concentration=2% DMSO) to final concentrations of 1.0 μM to […]. Dilutions were transferred to a black polystyrene 96-plate microtiter assay plate at a volume of 2.5 μL/well. […] The reactions were initiated by the addition of 50 μL of pre-warmed substrate and immediately placed in the microplate reader pre-warmed at 37° C.
A fluorometric plate reader was used to continuously monitor the rate of change in relative fluorescence units (RFUS) per unit time. The assay plate was mixed once before reading. The fluorogenic emission was read every 44 seconds for 30 minutes (excitation/emission of λex=390 nm and λex=460 nm; automatic cutoff=455 nm) at 37° C.

T1 sequence (P00742 235-488 limits assumed): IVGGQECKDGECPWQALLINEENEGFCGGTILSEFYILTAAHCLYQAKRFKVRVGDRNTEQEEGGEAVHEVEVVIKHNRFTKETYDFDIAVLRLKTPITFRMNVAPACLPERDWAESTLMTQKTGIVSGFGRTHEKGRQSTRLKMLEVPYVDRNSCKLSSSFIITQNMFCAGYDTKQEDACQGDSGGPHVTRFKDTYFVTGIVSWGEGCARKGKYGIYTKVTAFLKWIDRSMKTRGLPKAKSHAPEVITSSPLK
T1 sequence (P00742 41-179 partner limits assumed): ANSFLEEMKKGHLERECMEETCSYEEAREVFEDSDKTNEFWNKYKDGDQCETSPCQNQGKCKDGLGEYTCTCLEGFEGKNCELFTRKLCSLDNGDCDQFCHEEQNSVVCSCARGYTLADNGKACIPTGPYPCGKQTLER

Structure (SMILES) | IC50
C[C@]1(C(=O)Nc2ccc(-n3ccccc3=O)cc2F)CC=NN1C(=O)Nc1ccc(Cl)cc1 [(R) enantiomer, (R)-5-Methyl-4,5-dihydro-pyrazole-1,5-dicarboxylic acid 1-[(4-chloro-phenyl)-amide] 5-{[2-fluoro-4-(2-oxo-2H-pyridin-1-yl)-phenyl]-amide}] | 0.982 nM
C[C@@]1(C(=O)Nc2ccc(-n3ccccc3=O)cc2F)CC=NN1C(=O)Nc1ccc(Cl)cc1 [(S) enantiomer, (S)-5-Methyl-4,5-dihydro-pyrazole-1,5-dicarboxylic acid 1-[(4-chloro-phenyl)-amide] 5-{[2-fluoro-4-(2-oxo-2H-pyridin-1-yl)-phenyl]-amide}] | 141 nM
